This note sets out measurements from patent publication US10266544B2, “Aryl substituted aminomethyl spectinomycin analogs as antibacterial agents” (ST. JUDE CHILDREN'S RESEARCH HOSPITAL, INC., priority 2013, dated 2019).

Type in all cases: cell-based
The test system of assay [1] is Bacillus anthracis, Sterne 34F2. Description: microbe, parasite or virus in culture. To be noted: STERNE34F2, read-out: MIC B.a.
The subject of assay [2] is Bacillus subtilis (ATCC 23857). As to the kind of experiment: MIC determination, microbroth dilution. Particulars: ATCC23857; Bacillus subtilis (ATCC 23857); read-out: MIC B.s. Background: In broth dilution the organism is exposed to a series of concentrations in liquid medium.
Assay [3] relates to Enterococcus faecalis (ATCC 33186). As to the kind of experiment: MIC determination, microbroth dilution. To be noted: ATCC33186; Enterococcus faecalis (ATCC 33186); read-out: MIC E.f.
The test system of assay [4] is Staphylococcus aureus (ATCC 29213). Description: MIC determination, microbroth dilution. Particulars: ATCC29213; Staphylococcus aureus (ATCC 29213); read-out: MIC S.a.
Assay [5] deals with MRSA, Staphylococcus aureus (NRS70). As to the kind of experiment: MIC determination, microbroth dilution. Particulars: Staphylococcus aureus (NRS70); read-out: MIC MRSA.
The subject of assay [6] is Streptococcus pneumoniae (R6). Description: MIC determination, microbroth dilution. Particulars: Streptococcus pneumoniae (R6); read-out: MIC S. pn.
Assay [7] concerns Streptococcus pyogenes (ATCC 700294). Description: MIC determination, microbroth dilution. To be noted: ATCC700294; Streptococcus pyogenes (ATCC 700294); read-out: MIC S. py.
The subject of assay [8] is acinetobacter baumannii (ATCC 19606). Description: MIC determination, microbroth dilution. To be noted: ATCC19606.
In assay [9] the test system is Burkholderia cepacia (ATCC 25416). Description: MIC determination, microbroth dilution. Particulars: Burkholderia cepacia.
Assay [10] has as its system Escherichia coli (ATCC 700926). Description: MIC determination, microbroth dilution. Particulars: ATCC700926; Escherichia coli (ATCC 700926); read-out: MIC E.c. Here is the method: MICs were determined using the microbroth dilution method according to Clinical Laboratory Standards Institute (CLSI; National, C. F. C. L. S., Methods for Dilution Antimicrobial Susceptibility Tests for Bacteria Grow aerobically-Seventh Edition: Approved Standard M7-A7, CLSI, Wayne, Pa., USA, 2008) and were read by visual inspection. Two fold serial dilutions of antibiotic in 100 μL of the appropriate broth media were first prepared in 96-well round bottom microtiter plates (Nalge Nunc International, Rochester, N.Y., USA). An equivalent volume (100 μL) of bacterial broth inocula containing approximately 10^5 bacterial cfu/mL was added to each well to give final concentrations of drug starting at 200 μg/mL and the plates were incubated aerobically at 37° C. M. tuberculosis microtiter plates were incubated for 7 days and all other strains were incubated overnight. After incubations, in all cases the MIC was recorded as the lowest concentration of drug that prevented bacterial growth.

The subject of the next assay is E. coli K12 ΔtolC. Description: microbe, parasite or virus in culture. To be noted: Escherichia coli, read-out: MIC E.c. Δtolc.
Assay [11] relates to Klebsiella pneumoniae (ATCC 33495). Description: MIC determination, microbroth dilution. Particulars: ATCC33495.
The subject of assay [12] is Pseudomonas aeruginosa (PA01). Description: MIC determination, microbroth dilution.
The subject of assay [13] is Proteus mirabilis (ATCC 25933). As to the kind of experiment: MIC determination, microbroth dilution. Particulars: ATCC25933.
Assay [14] relates to Proteus vulgaris (ATCC 33420). As to the kind of experiment: MIC determination, microbroth dilution. To be noted: ATCC33420.
Assay [15] relates to Stenotrophomonas maltophilia (ATCC 13637). Description: MIC determination, microbroth dilution. Particulars: ATCC13637; Stenotrophomonas maltophilia (ATCC 13637); read-out: MIC S.m.
For assay [16], the system named is Haemophilus influenza (ATCC 49247). As to the kind of experiment: microbe, parasite or virus in culture. Particulars: ATCC49247; Haemophilus influenza; 4 μg per disc; range of at least two experiments; read-out: Zone of inhibition H.i.
Assay [17] concerns Legionella pneumophila (ATCC 33153). Description: microbe, parasite or virus in culture. To be noted: ATCC33153, 72 h, read-out: Zone of inhibition L.p.
Assay [18] deals with Neisseria meningitides (ATCC 13077). As to the kind of experiment: Disc diffusion assay. To be noted: ATCC13077, 4 μg per disc, read-out: Zone of inhibition N.m. (A growth-free zone around the sample is the usual read-out of agar diffusion tests.)
Assay [19] concerns Neisseria gonorrhoeae (ATCC 49226). As to the kind of experiment: Disc diffusion assay. To be noted: ATCC49226, 4 μg per disc, read-out: Zone of inhibition N.g.
Another assay concerns Bacillus anthracis. Description: microbe, parasite or virus in culture. Particulars: read-out: MIC B.a.
In assay [20] the test system is M. tuberculosis clinical isolates. As to the kind of experiment: microbe, parasite or virus in culture. Particulars: Mycobacterium tuberculosis.
For another assay, the system named is Listeria monocytogenes. As to the kind of experiment: MIC determination (Table 6).
A further assay has as its system Moraxella catarrhalis. Description: MIC determination (Table 6).
[21] abbreviates: ATCC25416, read-out: MIC B.c., Burkholderia cepacia (ATCC 25416).
Setting [22] is: ATCC25416, read-out: MIC B.c., Burkholderia cepacia, Table 6.

Molecules are shown by their SMILES. Converted amounts (≈) assume the structure as drawn. Structures can show the parent of a compound that is named as a salt. Where two headings read alike, the source gives them in different places. A value given as a limit tells only on which side of the number the result lay.

As a reminder, the zone of inhibition is the size of the clear area around the sample on an inoculated plate. Consider `CN[C@@H]1[C@H](O)[C@H](NC)[C@H]2O[C@]3(O)[C@H](O[C@@H]2[C@H]1O)O[C@H](C)C[C@]3(O)CNCCc1ccccc1` [compound 27, 3′-(S)-3′-(phenethylaminomethyl)dihydrospectinomycin Trihydrochloride], for which the MIC in assay [1], in [2], in assay [3], in [4], in assay [5] and in assay [6] was greater than 200 µg/mL in each case. The MIC in assay [7] is 50 to 100 µg/mL; in [8], no less than 200 µg/mL; in assay [9] (setting [21]) it was 200 µg/mL; in assay [9] (setting [22]) it was greater than 200 µg/mL; in assay [10], 50 to 100 µg/mL; with E. coli K12 ΔtolC, 25 to 50 µg/mL. The MIC in [11] is greater than 200 µg/mL; in [12] it was greater than 200 µg/mL; in assay [13] it was greater than 200 µg/mL; in assay [14], greater than 200 µg/mL; in assay [15] it was no less than 200 µg/mL; in the assay on Bacillus anthracis, greater than 200 µg/mL. The MIC in [20] (H37RV, read-out: MIC H37Rv) was determined as 200 µg/mL. In addition, the zone of inhibition at 4 µg/disc came to 0 mm in assay [16], 0 mm in [17], 0 mm in [18] and 7 mm in assay [19].

For the molecule `CN[C@@H]1[C@H](O)[C@H](NC)[C@H]2O[C@]3(O)[C@H](O[C@@H]2[C@H]1O)O[C@H](C)C[C@@]3(O)CNc1ccc(OC)cc1` [compound 29, 3′-(R)-3′-[(4-methoxy)phenylaminomethyl)]dihydrospectinomycin Trihydrochloride], the MIC in assay [1] is 100 to 200 µg/mL; in [2], 200 µg/mL; in assay [4], 200 µg/mL; in assay [5] it was greater than 200 µg/mL; in [6], greater than 200 µg/mL; in assay [7] it was 25 µg/mL. The MIC was no less than 200 µg/mL in [8]; no less than 200 µg/mL in [10]; 50 µg/mL in the assay with E. coli K12 ΔtolC; greater than 200 µg/mL in [11]; greater than 200 µg/mL in [12]; greater than 200 µg/mL in assay [13]. For the same molecule, the MIC in assay [14] was greater than 200 µg/mL; in assay [15], 200 µg/mL; in [20] (H37RV, read-out: MIC H37Rv), greater than 200 µg/mL. Besides, the zone of inhibition at 4 µg/disc in assay [16] came to 7 mm; in [17], 0 mm; in assay [18] it was 7 mm; in [19], 12 mm.

As to `CN[C@@H]1[C@H](O)[C@H](NC)[C@H]2O[C@]3(O)[C@H](O[C@@H]2[C@H]1O)O[C@H](C)C[C@@]3(O)CNc1ccccc1` [compound 30, 3′-(R)-3′-(phenylaminomethyl)dihydrospectinomycin Trihydrochloride], the MIC in assay [1] is 100 to 200 µg/mL; in assay [2], no less than 200 µg/mL; in assay [4] it was greater than 200 µg/mL; in [5], greater than 200 µg/mL; in [6], 12.5 to 25 µg/mL; in [7], 12.5 to 25 µg/mL. Further, the MIC in assay [8] was greater than 200 µg/mL; in assay [9] (setting [21]), greater than 200 µg/mL; in assay [10], 200 µg/mL; in the assay with E. coli K12 ΔtolC, 50 µg/mL; in assay [11] it was greater than 200 µg/mL; in assay [12], greater than 200 µg/mL. In addition, the MIC was greater than 200 µg/mL in [13]; greater than 200 µg/mL in assay [14]; no less than 200 µg/mL in assay [15]; greater than 200 µg/mL in assay [20] (H37RV, read-out: MIC H37Rv). Further, the zone of inhibition at 4 µg/disc in assay [16] came to 6 mm; in [17] it was 0 mm; in assay [18] it was 6 mm; in [19], 7 mm.

As to `CN[C@@H]1[C@H](O)[C@H](NC)[C@H]2O[C@]3(O)[C@H](O[C@@H]2[C@H]1O)O[C@H](C)C[C@@]3(O)CNc1ccc(F)cc1` [compound 31, 3′-(R)-3′-[(4-fluoro)phenylaminomethyl)]dihydrospectinomycin Trihydrochloride], the MIC was 200 µg/mL in [1]; 200 µg/mL in assay [2]; 200 µg/mL in assay [4]; greater than 200 µg/mL in assay [5]; 12.5 to 25 µg/mL in assay [6]; 12.5 to 25 µg/mL in [7]. Moreover, the MIC in [8] is greater than 200 µg/mL; in [9] (setting [21]), greater than 200 µg/mL; in assay [10], 100 to 200 µg/mL; in the assay on E. coli K12 ΔtolC, 50 to 100 µg/mL; in assay [11], greater than 200 µg/mL; in [12], greater than 200 µg/mL. Further, the MIC in assay [13] is greater than 200 µg/mL; in assay [14], greater than 200 µg/mL; in assay [15] it was 200 µg/mL; in assay [20] (H37RV, read-out: MIC H37Rv), 200 µg/mL. The zone of inhibition at 4 µg/disc in [16] was 6 mm; in assay [17], 0 mm; in [19], 12 mm.

As to `CN[C@@H]1[C@H](O)[C@H](NC)C2O[C@]3(O)C(OC2[C@H]1O)O[C@H](C)C[C@@]3(O)CNCc1cccc(O)c1` (stereo partly shown) [compound 35], the MIC in assay [1] was 25 µg/mL (≈ 53.2 µM); in [2] it was 6.3 µg/mL (≈ 13.4 µM); in [3], 12.5 µg/mL (≈ 26.6 µM); in [4], 25 to 50 µg/mL (≈ 53.2 to 106 µM); in assay [5] it was 25 to 50 µg/mL (≈ 53.2 to 106 µM); in assay [6] it was 0.8 to 1.6 µg/mL (≈ 1.7 to 3.41 µM). Further, the MIC is 0.4 to 0.8 µg/mL (≈ 0.852 to 1.7 µM) in assay [7]; greater than 200 µg/mL in assay [8]; greater than 200 µg/mL in [9] (setting [21]); 200 µg/mL (≈ 426 µM) in [10]; 6.3 to 12.5 µg/mL (≈ 13.4 to 26.6 µM) with E. coli K12 ΔtolC; greater than 200 µg/mL in [11]. The MIC was no less than 200 µg/mL in assay [12]; greater than 200 µg/mL in [13]; no less than 200 µg/mL in assay [14]; 25 µg/mL (≈ 53.2 µM) in [15]; 50 µg/mL (≈ 106 µM) in assay [20] (H37RV, read-out: MIC H37Rv). Besides, the zone of inhibition at 4 µg/disc in assay [16] is 15 to 16 mm; in assay [17], 30 mm; in assay [18], 18 mm; in assay [19] it was 16 mm.

Turning to `CN[C@@H]1[C@H](O)[C@H](NC)[C@H]2O[C@]3(O)[C@H](O[C@@H]2[C@H]1O)O[C@H](C)C[C@@]3(O)CNCCc1ccncc1` [compound 63, 3′-(R)-3′-[((2-(pyridin-4-yl)ethyl)aminomethyl]dihydrospectinomycintetrahydrobromide], the MIC in assay [1], in assay [4], in assay [5], in assay [8], in [9] (setting [21]) and in assay [9] (setting [22]) was greater than 200 µg/mL in each case. The MIC was greater than 200 µg/mL in assay [11]; greater than 200 µg/mL in the assay on Bacillus anthracis; 25 µg/mL in [20] (H37RV, read-out: MIC H37Rv); 25 µg/mL in assay [20] (read-out: MIC TN022); 25 µg/mL in [20] (read-out: MIC TN026); 100 µg/mL against Listeria monocytogenes. Besides, in the assay on Moraxella catarrhalis, the MIC is 12.5 µg/mL.
